For this experiment, the system named is MV-4-11 cells. In words: Gene expression microarray analysis (Affymetrix PrimeView) and GSEA. The class given is cell-based, human. As to conditions: ProbeSet 11726703_a_at; LIST B. Further details: RFU PODN (11730768_x_at) / Fold change /veh PODN (11730768_x_at) / RFU LINC00158 (11744669_a_at) / Fold change /veh LINC00158 (11744669_a_at) / RFU DUSP10 (11751237_a_at) / Fold change /veh DUSP10 (11751237_a_at) / RFU ID3 (11757404_x_at) / Fold change /veh ID3 (11757404_x_at) / RFU PLEKHG5 (11737974_s_at) / Fold change /veh PLEKHG5 (11737974_s_at) / RFU LRRC4B (11730491_at) / Fold change /veh LRRC4B (11730491_at) / RFU GIMAP4 (11747438_a_at) / Fold change /veh GIMAP4 (11747438_a_at) / RFU KRT8 (11758183_x_at) / Fold change /veh KRT8 (11758183_x_at) / RFU CNN1 (11734310_a_at) / Fold change /veh CNN1 (11734310_a_at) / RFU VPS37D (11726825_at) / Fold change /veh VPS37D (11726825_at) / RFU C10orf10 (11716522_x_at) / Fold change /veh C10orf10 (11716522_x_at) / RFU KIR2DL2 /// KIR2DL4 /// KIR2DL5A /// KIR2DL5B /// KIR2DS1 /// KIR2DS2 /// KIR2DS3 /// KIR2DS4 /// KIR3DL3 /// KIR3DL3 /// KIR3DS1 (11738374_at) / Fold change /veh KIR2DL2 /// KIR2DL4 /// KIR2DL5A /// KIR2DL5B /// KIR2DS1 /// KIR2DS2 /// KIR2DS3 /// KIR2DS4 /// KIR3DL3 /// KIR3DL3 /// KIR3DS1 (11738374_at) / RFU C1QL1 (11718748_at) / Fold change /veh C1QL1 (11718748_at) / RFU TMPRSS4 (11747572_a_at) / Fold change /veh TMPRSS4 (11747572_a_at) / RFU HAMP (11756126_x_at) / Fold change /veh HAMP (11756126_x_at) / RFU RNFT2 (11725882_a_at) / Fold change /veh RNFT2 (11725882_a_at) / RFU NR4A2 (11747474_a_at) / Fold change /veh NR4A2 (11747474_a_at) / RFU ABCC12 (11746883_a_at) / Fold change /veh ABCC12 (11746883_a_at) / RFU TMEM136 (11760407_x_at) / Fold change /veh TMEM136 (11760407_x_at) / RFU CLDN22 /// WWC2 (11732394_at) / Fold change /veh CLDN22 /// WWC2 (11732394_at) / RFU HLA-DPB1 (11760878_x_at) / Fold change /veh HLA-DPB1 (11760878_x_at) / RFU SPINT1 (11716480_a_at) / Fold change /veh SPINT1 (11716480_a_at) / RFU GAP43 (11754022_s_at) / Fold change /veh GAP43 (11754022_s_at) / RFU A4GNT (11735810_at) / Fold change /veh A4GNT (11735810_at) / RFU PRB3 (11715151_x_at) / Fold change /veh PRB3 (11715151_x_at) / RFU TUBB4B (11761932_at) / Fold change /veh TUBB4B (11761932_at) / RFU CAPN14 (11732068_a_at) / Fold change /veh CAPN14 (11732068_a_at) / RFU TMCC2 (11721928_a_at) / Fold change /veh TMCC2 (11721928_a_at) / RFU IRGQ (11745062_a_at) / Fold change /veh IRGQ (11745062_a_at) / RFU FAM174B (11720279_a_at) / Fold change /veh FAM174B (11720279_a_at) / RFU TMPRSS4 (11748680_a_at) / Fold change /veh TMPRSS4 (11748680_a_at) / RFU FAM212B (11763350_a_at) / Fold change /veh FAM212B (11763350_a_at) / RFU PLEKHG5 (11743358_a_at) / Fold change /veh PLEKHG5 (11743358_a_at) / RFU ZSCAN30 (11745921_a_at) / Fold change /veh ZSCAN30 (11745921_a_at) / RFU CMKLR1 (11741424_a_at) / Fold change /veh CMKLR1 (11741424_a_at) / RFU LOC101060620 /// MAPK8IP1 (11723275_at) / Fold change /veh LOC101060620 /// MAPK8IP1 (11723275_at) / RFU SPTSSB (11747773_x_at) / Fold change /veh SPTSSB (11747773_x_at) / RFU PRSS12 (11739890_at) / Fold change /veh PRSS12 (11739890_at) / RFU BIN1 (11741810_x_at) / Fold change /veh BIN1 (11741810_x_at) / RFU WNT11 (11732464_a_at) / Fold change /veh WNT11 (11732464_a_at) / RFU C10orf10 (11716521_a_at) / Fold change /veh C10orf10 (11716521_a_at) / RFU C5orf56 (11738089_at) / Fold change /veh C5orf56 (11738089_at) / RFU CYB561 (11721691_x_at) / Fold change /veh CYB561 (11721691_x_at) / RFU ANKRD19P (11752326_a_at) / Fold change /veh ANKRD19P (11752326_a_at) / RFU OR2T12 /// OR2T33 /// OR2T8 (11738714_s_at) / Fold change /veh OR2T12 /// OR2T33 /// OR2T8 (11738714_s_at) / RFU VCAN (11748164_a_at) / Fold change /veh VCAN (11748164_a_at) / RFU JSRP1 (11732532_at) / Fold change /veh JSRP1 (11732532_at) / RFU KRTAP10-11 (11738290_x_at) / Fold change /veh KRTAP10-11 (11738290_x_at) / RFU MYO3A (11730013_a_at) / Fold change /veh MYO3A (11730013_a_at) / RFU EBF3 (11725865_a_at) / Fold change /veh EBF3 (11725865_a_at) / RFU CAMK2N1 (11719241_x_at) / Fold change /veh CAMK2N1 (11719241_x_at) / RFU C5orf56 (11738088_a_at) / Fold change /veh C5orf56 (11738088_a_at) / RFU OLFML3 (11715873_a_at) / Fold change /veh OLFML3 (11715873_a_at) / RFU LOC100653217 /// NTM (11731650_a_at) / Fold change /veh LOC100653217 /// NTM (11731650_a_at) / RFU MAPK11 (11762145_a_at) / Fold change /veh MAPK11 (11762145_a_at) / RFU FIZ1 (11724087_x_at) / Fold change /veh FIZ1 (11724087_x_at) / RFU OASL (11726364_x_at) / Fold change /veh OASL (11726364_x_at) / RFU SOX15 (11748057_x_at) / Fold change /veh SOX15 (11748057_x_at) / RFU CD79A (11719716_a_at) / Fold change /veh CD79A (11719716_a_at) / RFU HIST1H1D (11736915_at) / Fold change /veh HIST1H1D (11736915_at) / RFU CASKIN2 (11723855_a_at) / Fold change /veh CASKIN2 (11723855_a_at) / RFU LOC730098 (11760151_x_at) / Fold change /veh LOC730098 (11760151_x_at) / RFU OR4N2 (11742367_at) / Fold change /veh OR4N2 (11742367_at) / RFU PRRT2 (11749266_a_at) / Fold change /veh PRRT2 (11749266_a_at) / RFU SNX32 (11753110_a_at) / Fold change /veh SNX32 (11753110_a_at) / RFU CDHR5 (11726645_a_at) / Fold change /veh CDHR5 (11726645_a_at) / RFU RCAN1 (11760418_a_at) / Fold change /veh RCAN1 (11760418_a_at) / RFU FAM167A (11723789_a_at) / Fold change /veh FAM167A (11723789_a_at) / RFU FAM26E (11764081_at) / Fold change /veh FAM26E (11764081_at) / RFU ISYNA1 (11749810_s_at) / Fold change /veh ISYNA1 (11749810_s_at) / RFU ACY1 (11761880_at) / Fold change /veh ACY1 (11761880_at) / RFU 11764098_at / Fold change /veh 11764098_at / RFU SAMD14 (11745864_x_at) / Fold change /veh SAMD14 (11745864_x_at) / RFU NPB (11741838_a_at) / Fold change /veh NPB (11741838_a_at) / RFU TMPRSS6 (11731388_a_at) / Fold change /veh TMPRSS6 (11731388_a_at) / RFU KRTAP10-2 (11738614_at) / Fold change /veh KRTAP10-2 (11738614_at) / RFU ARHGAP8 /// PRR5-ARHGAP8 (11727945_x_at) / Fold change /veh ARHGAP8 /// PRR5-ARHGAP8 (11727945_x_at) / RFU KRTAP5-7 /// NADSYN1 (11734609_at) / Fold change /veh KRTAP5-7 /// NADSYN1 (11734609_at) / RFU RASL12 (11751679_a_at) / Fold change /veh RASL12 (11751679_a_at) / RFU CDKN2B (11736163_a_at) / Fold change /veh CDKN2B (11736163_a_at) / RFU PRF1 (11729649_at) / Fold change /veh PRF1 (11729649_at) / RFU, ZNF638 /// ZNF638-IT1 / Fold change vs veh, ZNF638 /// ZNF638-IT1 / RFU, PANK3 / Fold change vs veh, PANK3 / RFU, SH3YL1 / Fold change vs veh, SH3YL1 / RFU, ZEB2 / Fold change vs veh, ZEB2 / RFU, NRIP1 / Fold change vs veh, NRIP1 / RFU, PTTG1IP / Fold change vs veh, PTTG1IP / RFU, CAPN2 / Fold change vs veh, CAPN2 / RFU, MED14 / Fold change vs veh, MED14 / RFU, SNORA58 / Fold change vs veh, SNORA58 / RFU, C1orf63 / Fold change vs veh, C1orf63 / RFU, LRRFIP1 / Fold change vs veh, LRRFIP1 / RFU, NDUFAF7 / Fold change vs veh, NDUFAF7 / RFU, SLC12A2 / Fold change vs veh, SLC12A2 / RFU, IBTK / Fold change vs veh, IBTK / RFU, ESF1 / Fold change vs veh, ESF1 / Fold change vs veh, TMEM50B / RFU, TAOK1 / Fold change vs veh, TAOK1 / RFU, ACBD3 / Fold change vs veh, ACBD3 / RFU, TMA16 / Fold change vs veh, TMA16 / RFU, RWDD3 / Fold change vs veh, RWDD3 / RFU, BCAT1 / Fold change vs veh, BCAT1 / RFU, EDEM3 / Fold change vs veh, EDEM3 / RFU, TMEM33 / Fold change vs veh, TMEM33 / RFU, WDR75 / Fold change vs veh, WDR75 / RFU, AHCTF1 / Fold change vs veh, AHCTF1 / RFU, TFRC / Fold change vs veh, TFRC / RFU, ZDHHC17 / Fold change vs veh, ZDHHC17 / RFU, NOM1 / Fold change vs veh, NOM1 / RFU, ARL8B / Fold change vs veh, ARL8B / RFU, ZBTB11 / Fold change vs veh, ZBTB11 / RFU, TAMM41 / Fold change vs veh, TAMM41 / RFU, KIAA1704 /// LOC100996395 / Fold change vs veh, KIAA1704 /// LOC100996395 / RFU, ING1 / Fold change vs veh, ING1 / RFU, TRMT61B / Fold change vs veh, TRMT61B / RFU, FUBP3 / Fold change vs veh, FUBP3 / RFU, TP53 / Fold change vs veh, TP53 / RFU, TNKS2 / Fold change vs veh, TNKS2 / RFU, ZFP14 / Fold change vs veh, ZFP14 / RFU, ACTR2 / Fold change vs veh, ACTR2 / RFU, PPP3R1 / Fold change vs veh, PPP3R1 / RFU, PIK3R1 / Fold change vs veh, PIK3R1 / RFU, HNRNPA1 / Fold change vs veh, HNRNPA1 / RFU, RNF170 / Fold change vs veh, RNF170 / RFU, ZNF28 / Fold change vs veh, ZNF28 / RFU, RNGTT / Fold change vs veh, RNGTT / RFU, OGT / Fold change vs veh, OGT / RFU, BRD1 / Fold change vs veh, BRD1 / RFU, MARS / Fold change vs veh, MARS / RFU, ZNF655 / Fold change vs veh, ZNF655 / RFU, FAHD1 / Fold change vs veh, FAHD1 / RFU, BDP1 / Fold change vs veh, BDP1 / RFU, LRRCC1 / Fold change vs veh, LRRCC1 / RFU, ARID1A / Fold change vs veh, ARID1A / RFU, ZNF146 / Fold change vs veh, ZNF146 / RFU, ZNF330 / Fold change vs veh, ZNF330 / RFU, GPN3 / Fold change vs veh, GPN3 / RFU, C9orf123 / Fold change vs veh, C9orf123 / RFU, N4BP2L2 / Fold change vs veh, N4BP2L2 / RFU, ARFIP1 / Fold change vs veh, ARFIP1 / RFU, FAM179B / Fold change vs veh, FAM179B / RFU, BCL10 / Fold change vs veh, BCL10 / RFU, UHRF1BP1L / Fold change vs veh, UHRF1BP1L / RFU, BET1 / Fold change vs veh, BET1 / RFU, CNOT2 / Fold change vs veh, CNOT2 / RFU, ZNF268 / Fold change vs veh, ZNF268 / Fold change vs veh, ZNF507 / RFU, DGCR2 / Fold change vs veh, DGCR2 / RFU, WDSUB1 / Fold change vs veh, WDSUB1 / Fold change vs veh, HSP90B1 /// MIR3652 / RFU, ADSS / Fold change vs veh, ADSS / RFU, GK / Fold change vs veh, GK / RFU, ZNF148 / Fold change vs veh, ZNF148 / RFU, TAF9 / Fold change vs veh, TAF9 / RFU, SLC1A5 / Fold change vs veh, SLC1A5 / RFU, SLMO2 / Fold change vs veh, SLMO2 / RFU, ABCC4 / Fold change vs veh, ABCC4 / RFU, LOC101060439 /// RAP1B / Fold change vs veh, LOC101060439 /// RAP1B / RFU, RFX7 / Fold change vs veh, RFX7 / RFU, GTPBP10 / Fold change vs veh, GTPBP10 / RFU, CNEP1R1 / Fold change vs veh, CNEP1R1 / RFU, BIVM-ERCC5 /// ERCC5 / Fold change vs veh, BIVM-ERCC5 /// ERCC5 / RFU, ILF3 / Fold change vs veh, ILF3 / RFU 11762660_at / Fold change /veh 11762660_at / RFU VCAN (11757783_s_at) / Fold change /veh VCAN (11757783_s_at) / RFU DDX43 (11728927_at) / Fold change /veh DDX43 (11728927_at) / RFU KRT8 (11758188_x_at) / Fold change /veh KRT8 (11758188_x_at) / RFU NKD1 (11759106_at) / Fold change /veh NKD1 (11759106_at) / RFU SRD5A1 (11742802_a_at) / Fold change /veh SRD5A1 (11742802_a_at) / RFU TPSAB1 /// TPSB2 (11721975_s_at) / Fold change /veh TPSAB1 /// TPSB2 (11721975_s_at) / RFU GSTM3 (11746129_a_at) / Fold change /veh GSTM3 (11746129_a_at) / RFU IL23R (11737362_x_at) / Fold change /veh IL23R (11737362_x_at) / RFU TMEM51 (11727254_a_at) / Fold change /veh TMEM51 (11727254_a_at) / RFU PIWIL2 (11732686_x_at) / Fold change /veh PIWIL2 (11732686_x_at) / RFU ORM1 (11744905_x_at) / Fold change /veh ORM1 (11744905_x_at) / RFU CCDC152 (11743942_at) / Fold change /veh CCDC152 (11743942_at) / RFU ECM1 (11717891_a_at) / Fold change /veh ECM1 (11717891_a_at) / RFU IL23R (11748794_a_at) / Fold change /veh IL23R (11748794_a_at) / RFU TNFAIP8L3 (11732012_x_at) / Fold change /veh TNFAIP8L3 (11732012_x_at) / RFU MBOAT4 (11741988_at) / Fold change /veh MBOAT4 (11741988_at) / RFU 11764193_at / Fold change /veh 11764193_at / RFU TMEM53 (11763286_at) / Fold change /veh TMEM53 (11763286_at) / RFU MAGEB2 (11727129_at) / Fold change /veh MAGEB2 (11727129_at) / RFU TMEM200A (11744735_a_at) / Fold change /veh TMEM200A (11744735_a_at) / RFU CCDC152 (11751479_a_at) / Fold change /veh CCDC152 (11751479_a_at) / RFU FAM211A (11726209_a_at) / Fold change /veh FAM211A (11726209_a_at) / RFU RGS16 (11746705_a_at) / Fold change /veh RGS16 (11746705_a_at) / RFU VCAN (11755009_s_at) / Fold change /veh VCAN (11755009_s_at) / RFU RHOB (11743442_s_at) / Fold change /veh RHOB (11743442_s_at) / RFU RGS16 (11720943_a_at) / Fold change /veh RGS16 (11720943_a_at) / RFU RGS16 (11720944_at) / Fold change /veh RGS16 (11720944_at) / RFU, VPS4B / Fold change vs veh, VPS4B / RFU, CREB1 / Fold change vs veh, CREB1 / RFU, DNAJC13 / Fold change vs veh, DNAJC13 / RFU, GNAQ / Fold change vs veh, GNAQ / RFU, CDK5R1 / Fold change vs veh, CDK5R1 / RFU, ZRANB3 / Fold change vs veh, ZRANB3 / RFU, CUL4A / Fold change vs veh, CUL4A / RFU, CCNY / Fold change vs veh, CCNY / RFU, UFL1 / Fold change vs veh, UFL1 / RFU, COG3 / Fold change vs veh, COG3 / RFU, DIAPH2 / Fold change vs veh, DIAPH2 / RFU, SKA2 / Fold change vs veh, SKA2 / RFU, AFF3 / Fold change vs veh, AFF3 / RFU, LMF1 / Fold change vs veh, LMF1 / RFU, IPO11 / Fold change vs veh, IPO11 / RFU, DFFB / Fold change vs veh, DFFB / RFU, FOXP1 / Fold change vs veh, FOXP1 / RFU, CARD8 / Fold change vs veh, CARD8 / RFU, STRN3 / Fold change vs veh, STRN3 / RFU, ADK / Fold change vs veh, ADK / RFU, RASSF2 / Fold change vs veh, RASSF2 / RFU, WIPF1 / Fold change vs veh, WIPF1 / RFU, LARP1B / Fold change vs veh, LARP1B / RFU, RASA1 / Fold change vs veh, RASA1 / RFU, RB1 / Fold change vs veh, RB1 / RFU, PPFIA1 / Fold change vs veh, PPFIA1 / RFU, MAT2A / Fold change vs veh, MAT2A / RFU, CCT5 / Fold change vs veh, CCT5 / RFU, WDR92 / Fold change vs veh, WDR92 / RFU, CUX1 / Fold change vs veh, CUX1 / RFU, TTC7A / Fold change vs veh, TTC7A / RFU, TMEM135 / Fold change vs veh, TMEM135 / RFU, DEPTOR / Fold change vs veh, DEPTOR / RFU, CPM / Fold change vs veh, CPM / RFU, DNAJB6 / Fold change vs veh, DNAJB6 / RFU, CACNA2D3 / Fold change vs veh, CACNA2D3 / RFU, DTX4 / Fold change vs veh, DTX4 / RFU, TFCP2 / Fold change vs veh, TFCP2 / RFU, GMCL1 /// GMCL1P1 / Fold change vs veh, GMCL1 /// GMCL1P1 / RFU, AEBP2 / Fold change vs veh, AEBP2 / RFU, SNHG1 /// SNORD22 /// SNORD25 /// SNORD26 /// SNORD27 /// SNORD28 /// SNORD29 /// SNORD31 / Fold change vs veh, SNHG1 /// SNORD22 /// SNORD25 /// SNORD26 /// SNORD27 /// SNORD28 /// SNORD29 /// SNORD31 / Fold change (Aza/veh), C12orf56 (ProbeSet 11735607_a_at) / Fold change (ACY-1035/veh), C12orf56 (ProbeSet 11735607_a_at) / Fold change (Aza/veh), FGFR1OP (ProbeSet 11751329_s_at) / Fold change (ACY-1035/veh), FGFR1OP (ProbeSet 11751329_s_at) / Fold change (Aza/veh), VPS36 (ProbeSet 11739960_a_at) / Fold change (ACY-1035/veh), VPS36 (ProbeSet 11739960_a_at) / RFU SYPL1 (11715823_x_at) / Fold change /veh SYPL1 (11715823_x_at) / RFU IGFBP7 (11715501_s_at) / Fold change /veh IGFBP7 (11715501_s_at) / RFU REEP3 (11722064_at) / Fold change /veh REEP3 (11722064_at) / RFU IGLL1 (11728026_x_at) / Fold change /veh IGLL1 (11728026_x_at): dose or concentration left out as unconfirmed.

The values that follow come from article PMC5218480 (PLoS ONE, 2017).

SMILES strings stand for the structures.

`Nc1ccc(-c2cccs2)cc1NC(=O)c1ccc2c(c1)cc(C1CC1)n2CCN1CCOCC1` [ACY-1035]: the “Fold change vs veh, BCL10” value was determined as 0.84.
